Starred links: 1 amine or outer side, 2 acyl side, 3 side chain; linkers in the order of their positions; H or OH if unused. Residues, ends and D or L forms follow the SMILES beside them. Groups on a side chain read outwards from the residue. *: point of attachment. C18 diacid = O=C(O)CCCCCCCCCCCCCCCCC(=O)*; γGlu = O=C(O)[C@H](CCC(=O)[*:2])N[*:1]; Palmitoyl = CCCCCCCCCCCCCCCC(=O)*; AEEA = NCCOCCOCC(=O)O

In the test the target is T1, human CRHR2b (Homo sapiens, UniProt Q13324).
T1 construct: expressed in transfected cells; host or cells: Chinese Hamster Ovary (CHO) cells, transient transfection
T1 sequence (Q13324 1-438 isoform Q13324-2): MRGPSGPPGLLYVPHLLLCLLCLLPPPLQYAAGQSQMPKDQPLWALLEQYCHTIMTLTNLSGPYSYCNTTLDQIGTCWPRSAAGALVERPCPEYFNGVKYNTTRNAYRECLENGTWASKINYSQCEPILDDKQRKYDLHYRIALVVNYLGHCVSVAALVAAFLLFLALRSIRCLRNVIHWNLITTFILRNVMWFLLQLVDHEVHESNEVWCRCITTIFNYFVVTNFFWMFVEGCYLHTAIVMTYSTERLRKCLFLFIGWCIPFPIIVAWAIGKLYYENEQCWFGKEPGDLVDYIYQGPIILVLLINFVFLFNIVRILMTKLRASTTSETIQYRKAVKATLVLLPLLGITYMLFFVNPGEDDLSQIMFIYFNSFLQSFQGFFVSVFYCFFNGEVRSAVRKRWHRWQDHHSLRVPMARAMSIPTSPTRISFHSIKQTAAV
The test can be described thus: human CRHR2b cell-based cAMP assay. To be noted: cAMP assay; Table 26, compounds of Example 9; read-out: hCRHR2b Average EC50. The method, boiled down:
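ED50 values are means ± SEM over several runs, curve-fitted from cAMP in pmol, calibrated against unlabeled-cAMP standards. Detection was HTRF competition, ratio 665/620 nm, after 30 min agonist exposure at 37 °C.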
For orientation: cAMP levels reflect the balance of adenylyl cyclase and phosphodiesterase activity.
Regarding `CCCCCCCCCCCCCCCC(=O)N[C@@H](CCC(=O)NCCCC[C@H](NC(=O)[C@H](CCC(N)=O)NC(=O)[C@H](CCC(N)=O)NC(=O)[C@H](CCCCN)NC(=O)[C@H](CCC(=O)O)NC(=O)[C@H](CCCCN)NC(=O)[C@H](CCC(=O)O)NC(=O)[C@H](CCC(N)=O)NC(=O)[C@H](CCCCN)NC(=O)[C@H](CCC(=O)O)NC(=O)[C@H](CCC(N)=O)NC(=O)[C@H](CCC(=O)O)NC(=O)[C@H](CC(C)C)NC(=O)[C@H](CC(C)C)NC(=O)[C@@H](NC(=O)[C@H](CCC(N)=O)NC(=O)[C@H](CC(C)C)NC(=O)[C@H](CC(C)C)NC(=O)CNC(=O)[C@@H](NC(=O)[C@@H]1CCCN1C(=O)[C@@H](NC(=O)[C@H](CC(=O)O)NC(=O)[C@H](CC(C)C)NC(=O)[C@H](CO)NC(=O)[C@H](CC(C)C)NC(=O)[C@@H](NC(=O)[C@@H](N)[C@@H](C)CC)C(C)C)C(C)C)[C@@H](C)CC)[C@@H](C)CC)C(=O)N[C@H](C(=O)N[C@H](C(=O)N[C@@H](CC(N)=O)C(=O)N[C@@H](C)C(=O)N[C@@H](CCCNC(=N)N)C(=O)N[C@H](C(=O)N[C@@H](CC(C)C)C(=O)N[C@@H](C)C(=O)N[C@@H](CCCNC(=N)N)C(=O)N[C@H](C(N)=O)C(C)C)[C@@H](C)CC)[C@@H](C)O)[C@@H](C)O)C(=O)O` [Compound 36] (H-IVLSLDVPIGLLQILLEQEKQEKEKQQK([γGlu-Palmitoyl])TTNARILARV-NH2), the EC50 came to 331 nM. On to `CCCCCCCCCCCCCCCC(=O)N[C@@H](CCC(=O)NCCCC[C@H](NC(=O)[C@H](C)NC(=O)[C@H](CCC(N)=O)NC(=O)[C@H](CCC(N)=O)NC(=O)[C@H](CCCCN)NC(=O)[C@H](CCC(=O)O)NC(=O)[C@H](CCCCN)NC(=O)[C@H](CCC(=O)O)NC(=O)[C@H](CCC(N)=O)NC(=O)[C@H](CCCCN)NC(=O)[C@H](CCC(=O)O)NC(=O)[C@H](CCC(N)=O)NC(=O)[C@H](CCC(=O)O)NC(=O)[C@H](CC(C)C)NC(=O)[C@H](CC(C)C)NC(=O)[C@@H](NC(=O)[C@H](CCC(N)=O)NC(=O)[C@H](CC(C)C)NC(=O)[C@H](CC(C)C)NC(=O)CNC(=O)[C@@H](NC(=O)[C@@H]1CCCN1C(=O)[C@@H](NC(=O)[C@H](CC(=O)O)NC(=O)[C@H](CC(C)C)NC(=O)[C@H](CO)NC(=O)[C@H](CC(C)C)NC(=O)[C@@H](NC(=O)[C@@H](N)[C@@H](C)CC)C(C)C)C(C)C)[C@@H](C)CC)[C@@H](C)CC)C(=O)N[C@H](C(=O)N[C@@H](CC(N)=O)C(=O)N[C@@H](C)C(=O)N[C@@H](CCCNC(=N)N)C(=O)N[C@H](C(=O)N[C@@H](CC(C)C)C(=O)N[C@@H](C)C(=O)N[C@@H](CCCNC(=N)N)C(=O)N[C@H](C(N)=O)C(C)C)[C@@H](C)CC)[C@@H](C)O)C(=O)O` [Compound 37] (H-IVLSLDVPIGLLQILLEQEKQEKEKQQAK([γGlu-Palmitoyl])TNARILARV-NH2), for which the EC50 is 24.1 nM. For the compound `CCCCCCCCCCCCCCCC(=O)N[C@@H](CCC(=O)N[C@@H](CCC(=O)NCCCC[C@H](NC(=O)[C@H](C)NC(=O)[C@H](CCC(N)=O)NC(=O)[C@H](CCC(N)=O)NC(=O)[C@H](CCCCN)NC(=O)[C@H](CCC(=O)O)NC(=O)[C@H](CCCCN)NC(=O)[C@H](CCC(=O)O)NC(=O)[C@H](CCC(N)=O)NC(=O)[C@H](CCCCN)NC(=O)[C@H](CCC(=O)O)NC(=O)[C@H](CCC(N)=O)NC(=O)[C@H](CCC(=O)O)NC(=O)[C@H](CC(C)C)NC(=O)[C@H](CC(C)C)NC(=O)[C@@H](NC(=O)[C@H](CCC(N)=O)NC(=O)[C@H](CC(C)C)NC(=O)[C@H](CC(C)C)NC(=O)CNC(=O)[C@@H](NC(=O)[C@@H]1CCCN1C(=O)[C@@H](NC(=O)[C@H](CC(=O)O)NC(=O)[C@H](CC(C)C)NC(=O)[C@H](CO)NC(=O)[C@H](CC(C)C)NC(=O)[C@@H](NC(=O)[C@@H](N)[C@@H](C)CC)C(C)C)C(C)C)[C@@H](C)CC)[C@@H](C)CC)C(=O)N[C@H](C(=O)N[C@@H](CC(N)=O)C(=O)N[C@@H](C)C(=O)N[C@@H](CCCNC(=N)N)C(=O)N[C@H](C(=O)N[C@@H](CC(C)C)C(=O)N[C@@H](C)C(=O)N[C@@H](CCCNC(=N)N)C(=O)N[C@H](C(N)=O)C(C)C)[C@@H](C)CC)[C@@H](C)O)C(=O)O)C(=O)O` [Compound 38] (H-IVLSLDVPIGLLQILLEQEKQEKEKQQAK([γGlu-γGlu-Palmitoyl])TNARILARV-NH2), the EC50 worked out at 2.33 nM. `CCCCCCCCCCCCCCCC(=O)N[C@@H](CCC(=O)NCCCC[C@H](NC(=O)[C@@H](NC(=O)[C@H](C)NC(=O)[C@H](CCC(N)=O)NC(=O)[C@H](CCC(N)=O)NC(=O)[C@H](CCCCN)NC(=O)[C@H](CCC(=O)O)NC(=O)[C@H](CCCCN)NC(=O)[C@H](CCC(=O)O)NC(=O)[C@H](CCC(N)=O)NC(=O)[C@H](CCCCN)NC(=O)[C@H](CCC(=O)O)NC(=O)[C@H](CCC(N)=O)NC(=O)[C@H](CCC(=O)O)NC(=O)[C@H](CC(C)C)NC(=O)[C@H](CC(C)C)NC(=O)[C@@H](NC(=O)[C@H](CCC(N)=O)NC(=O)[C@H](CC(C)C)NC(=O)[C@H](CC(C)C)NC(=O)CNC(=O)[C@@H](NC(=O)[C@@H]1CCCN1C(=O)[C@@H](NC(=O)[C@H](CC(=O)O)NC(=O)[C@H](CC(C)C)NC(=O)[C@H](CO)NC(=O)[C@H](CC(C)C)NC(=O)[C@@H](NC(=O)[C@@H](N)[C@@H](C)CC)C(C)C)C(C)C)[C@@H](C)CC)[C@@H](C)CC)[C@@H](C)O)C(=O)N[C@@H](CC(N)=O)C(=O)N[C@@H](C)C(=O)N[C@@H](CCCNC(=N)N)C(=O)N[C@H](C(=O)N[C@@H](CC(C)C)C(=O)N[C@@H](C)C(=O)N[C@@H](CCCNC(=N)N)C(=O)N[C@H](C(N)=O)C(C)C)[C@@H](C)CC)C(=O)O` [Compound 39] (H-IVLSLDVPIGLLQILLEQEKQEKEKQQATK([γGlu-Palmitoyl])NARILARV-NH2): the EC50 stood at 27 nM. Under `CC[C@H](C)[C@H](N)C(=O)N[C@H](C(=O)N[C@@H](CC(C)C)C(=O)N[C@@H](CO)C(=O)N[C@@H](CC(C)C)C(=O)N[C@@H](CC(=O)O)C(=O)N[C@H](C(=O)N1CCC[C@H]1C(=O)N[C@H](C(=O)NCC(=O)N[C@@H](CC(C)C)C(=O)N[C@@H](CC(C)C)C(=O)N[C@@H](CCC(N)=O)C(=O)N[C@@H](CCCCNC(=O)COCCOCCNC(=O)COCCOCCNC(=O)CC[C@H](NC(=O)CC[C@H](NC(=O)CCCCCCCCCCCCCCCCC(=O)O)C(=O)O)C(=O)O)C(=O)N[C@@H](CC(C)C)C(=O)N[C@@H](CC(C)C)C(=O)N[C@@H](CCC(=O)O)C(=O)N[C@@H](CCC(N)=O)C(=O)N[C@@H](CCC(=O)O)C(=O)N[C@@H](CCCCN)C(=O)N[C@@H](CCC(N)=O)C(=O)N[C@@H](CCC(=O)O)C(=O)N[C@@H](CCCCN)C(=O)N[C@@H](CCC(=O)O)C(=O)N[C@@H](CCCCN)C(=O)N[C@@H](CCC(N)=O)C(=O)N[C@@H](CCC(N)=O)C(=O)N[C@@H](C)C(=O)N[C@H](C(=O)N[C@H](C(=O)N[C@@H](CC(N)=O)C(=O)N[C@@H](C)C(=O)N[C@@H](CCC(N)=O)C(=O)N[C@H](C(=O)N[C@@H](CC(C)C)C(=O)N[C@@H](C)C(=O)N[C@@H](Cc1c[nH]cn1)C(=O)N[C@H](C(N)=O)C(C)C)[C@@H](C)CC)[C@@H](C)O)[C@@H](C)O)[C@@H](C)CC)C(C)C)C(C)C` [Compound 40] (H-IVLSLDVPIGLLQK([AEEA-AEEA-γGlu-γGlu-C18 diacid])LLEQEKQEKEKQQATTNAQILAHV-NH2) stands 55.9 nM; under `CC[C@H](C)[C@H](N)C(=O)N[C@H](C(=O)N[C@@H](CC(C)C)C(=O)N[C@@H](CO)C(=O)N[C@@H](CC(C)C)C(=O)N[C@@H](CC(=O)O)C(=O)N[C@H](C(=O)N1CCC[C@H]1C(=O)N[C@H](C(=O)NCC(=O)N[C@@H](CC(C)C)C(=O)N[C@@H](CC(C)C)C(=O)N[C@@H](CCC(N)=O)C(=O)N[C@H](C(=O)N[C@@H](CCCCNC(=O)COCCOCCNC(=O)COCCOCCNC(=O)CC[C@H](NC(=O)CC[C@H](NC(=O)CCCCCCCCCCCCCCCCC(=O)O)C(=O)O)C(=O)O)C(=O)N[C@@H](CC(C)C)C(=O)N[C@@H](CCC(=O)O)C(=O)N[C@@H](CCC(N)=O)C(=O)N[C@@H](CCC(=O)O)C(=O)N[C@@H](CCCCN)C(=O)N[C@@H](CCC(N)=O)C(=O)N[C@@H](CCC(=O)O)C(=O)N[C@@H](CCCCN)C(=O)N[C@@H](CCC(=O)O)C(=O)N[C@@H](CCCCN)C(=O)N[C@@H](CCC(N)=O)C(=O)N[C@@H](CCC(N)=O)C(=O)N[C@@H](C)C(=O)N[C@H](C(=O)N[C@H](C(=O)N[C@@H](CC(N)=O)C(=O)N[C@@H](C)C(=O)N[C@@H](CCC(N)=O)C(=O)N[C@H](C(=O)N[C@@H](CC(C)C)C(=O)N[C@@H](C)C(=O)N[C@@H](Cc1c[nH]cn1)C(=O)N[C@H](C(N)=O)C(C)C)[C@@H](C)CC)[C@@H](C)O)[C@@H](C)O)[C@@H](C)CC)[C@@H](C)CC)C(C)C)C(C)C` [Compound 41] (H-IVLSLDVPIGLLQIK([AEEA-AEEA-γGlu-γGlu-C18 diacid])LEQEKQEKEKQQATTNAQILAHV-NH2), 207 nM.

Usually EC50 stands for the concentration at which the effect is half-maximal.

(Values after patent US10894817B2, “Fatty acid modified urocortin-2 analogs for the treatment of diabetes and chronic kidney disease” (priority 2016, dated 2021).)
